Counter-ions that a name gives are not always drawn.
How the values were obtained:
Androgen Receptor = target: T1, Androgen Receptor (Homo sapiens, UniProt P10275, T878A); assay: Androgen Receptor Degradation Assay (Nano-Glo HiBiT); format: cell-based; details: LNCaP, 18 h, HiBiT-tagged AR in human LnCaP cells, read-out: mean asymptote max
T1 construct: the AR gene was modified, using CRISPR/Cas9 editing, so the expressed AR protein included an 11 amino acid HiBiT tag; endogenous in cells; host or cells: clonal LnCaP-derived line, AR gene edited by CRISPR/Cas9
T1 sequence (P10275 whole entry T878A): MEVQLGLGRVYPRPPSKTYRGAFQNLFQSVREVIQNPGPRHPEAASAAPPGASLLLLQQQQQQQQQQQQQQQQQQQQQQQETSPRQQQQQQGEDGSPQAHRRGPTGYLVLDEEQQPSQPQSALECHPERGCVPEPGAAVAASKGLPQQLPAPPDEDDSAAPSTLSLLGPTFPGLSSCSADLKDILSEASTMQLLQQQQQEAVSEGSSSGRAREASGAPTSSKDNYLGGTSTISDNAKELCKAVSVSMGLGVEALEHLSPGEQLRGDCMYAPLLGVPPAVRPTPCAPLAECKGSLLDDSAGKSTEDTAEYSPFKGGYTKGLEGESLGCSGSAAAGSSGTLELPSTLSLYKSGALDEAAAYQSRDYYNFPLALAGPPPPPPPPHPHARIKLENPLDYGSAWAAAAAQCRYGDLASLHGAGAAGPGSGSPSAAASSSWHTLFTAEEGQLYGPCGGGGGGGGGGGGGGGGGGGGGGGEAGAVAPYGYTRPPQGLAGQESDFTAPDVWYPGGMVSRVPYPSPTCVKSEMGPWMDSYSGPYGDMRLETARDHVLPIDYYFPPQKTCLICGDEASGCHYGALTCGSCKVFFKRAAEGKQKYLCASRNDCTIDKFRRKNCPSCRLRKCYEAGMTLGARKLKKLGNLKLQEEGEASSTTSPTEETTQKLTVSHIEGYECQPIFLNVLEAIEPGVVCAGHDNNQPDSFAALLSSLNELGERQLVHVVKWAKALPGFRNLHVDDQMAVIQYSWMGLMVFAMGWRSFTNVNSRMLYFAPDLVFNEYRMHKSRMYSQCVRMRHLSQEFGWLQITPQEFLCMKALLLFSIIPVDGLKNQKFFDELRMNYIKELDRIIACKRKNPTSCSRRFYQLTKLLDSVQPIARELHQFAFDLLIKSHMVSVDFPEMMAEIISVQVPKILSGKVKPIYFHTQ
T1 sequence (Q96SW2 whole entry partner): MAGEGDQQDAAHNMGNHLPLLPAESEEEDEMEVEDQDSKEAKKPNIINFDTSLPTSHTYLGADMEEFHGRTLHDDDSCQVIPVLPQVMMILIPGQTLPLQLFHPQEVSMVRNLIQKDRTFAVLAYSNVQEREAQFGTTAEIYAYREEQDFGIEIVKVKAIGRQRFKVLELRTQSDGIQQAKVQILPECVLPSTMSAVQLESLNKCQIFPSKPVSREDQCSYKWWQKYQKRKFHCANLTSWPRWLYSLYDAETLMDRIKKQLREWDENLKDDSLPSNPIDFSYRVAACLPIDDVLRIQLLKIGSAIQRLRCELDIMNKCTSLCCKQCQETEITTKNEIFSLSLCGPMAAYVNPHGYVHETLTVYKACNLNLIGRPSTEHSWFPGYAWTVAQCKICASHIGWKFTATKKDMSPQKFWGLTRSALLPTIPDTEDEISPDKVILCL
T1 sequence (Q16531 whole entry partner): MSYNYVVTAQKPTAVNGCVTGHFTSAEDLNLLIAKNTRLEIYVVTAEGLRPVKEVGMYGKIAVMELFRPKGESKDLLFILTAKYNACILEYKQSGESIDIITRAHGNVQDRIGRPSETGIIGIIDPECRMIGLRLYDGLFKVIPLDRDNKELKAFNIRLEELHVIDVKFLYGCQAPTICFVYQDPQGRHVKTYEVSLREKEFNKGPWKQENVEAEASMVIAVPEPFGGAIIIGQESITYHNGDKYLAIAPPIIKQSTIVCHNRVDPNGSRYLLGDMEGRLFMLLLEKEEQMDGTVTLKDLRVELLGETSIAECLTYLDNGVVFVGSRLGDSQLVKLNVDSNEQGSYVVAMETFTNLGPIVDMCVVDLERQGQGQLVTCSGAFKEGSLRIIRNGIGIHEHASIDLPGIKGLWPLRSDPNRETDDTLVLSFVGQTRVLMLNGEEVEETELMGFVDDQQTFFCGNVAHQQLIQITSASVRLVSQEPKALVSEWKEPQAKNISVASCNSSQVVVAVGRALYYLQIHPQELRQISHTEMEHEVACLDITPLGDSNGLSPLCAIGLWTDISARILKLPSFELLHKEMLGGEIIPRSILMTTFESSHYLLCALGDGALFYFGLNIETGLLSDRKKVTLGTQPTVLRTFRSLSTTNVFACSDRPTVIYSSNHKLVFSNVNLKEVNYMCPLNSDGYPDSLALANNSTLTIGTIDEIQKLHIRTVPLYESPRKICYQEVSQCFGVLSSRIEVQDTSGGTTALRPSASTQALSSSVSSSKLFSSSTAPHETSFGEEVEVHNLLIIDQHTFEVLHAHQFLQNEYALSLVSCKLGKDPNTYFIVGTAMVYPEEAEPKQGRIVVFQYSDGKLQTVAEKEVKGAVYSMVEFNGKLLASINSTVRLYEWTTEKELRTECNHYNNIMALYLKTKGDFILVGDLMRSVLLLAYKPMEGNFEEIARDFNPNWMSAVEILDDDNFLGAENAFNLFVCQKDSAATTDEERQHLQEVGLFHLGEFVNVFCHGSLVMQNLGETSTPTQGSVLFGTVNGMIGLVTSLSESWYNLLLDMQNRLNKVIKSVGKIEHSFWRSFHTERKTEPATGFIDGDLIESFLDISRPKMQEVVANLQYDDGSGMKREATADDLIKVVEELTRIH
Summary of the method: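 LnCaP cells with CRISPR-knocked-in N-terminal HiBiT-tagged AR (10,000/well) treated 18 h at 37 °C with PROTACs over 11 threefold concentrations; lytic HiBiT luminescence normalised to DMSO (0%) and cell-free (100%) controls. Relative DC50 = 4-parameter fit inflection; absolute DC50 = 50% degradation interpolation; Dmax = maximum observed degradation.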

[1] = target: T2, Androgen Receptor dual T878A/L702H mutant protein (Homo sapiens, UniProt P10275, L702H/T878A); assay: Dual Mutant (T878A/L702H) Androgen Receptor Degradation Assay (HTRF); format: cell-based; details: MDA-PCa-2b, 18 h, human MDA PCa 2b cells, read-out: mean asymptote max
T2 construct: Androgen Receptor dual T878A/L702H mutant protein in human MDA PCa 2b (ATCC, #CRL-2422) cells; host or cells: MDA PCa 2b
T2 sequence (P10275 1-920 L702H/T878A): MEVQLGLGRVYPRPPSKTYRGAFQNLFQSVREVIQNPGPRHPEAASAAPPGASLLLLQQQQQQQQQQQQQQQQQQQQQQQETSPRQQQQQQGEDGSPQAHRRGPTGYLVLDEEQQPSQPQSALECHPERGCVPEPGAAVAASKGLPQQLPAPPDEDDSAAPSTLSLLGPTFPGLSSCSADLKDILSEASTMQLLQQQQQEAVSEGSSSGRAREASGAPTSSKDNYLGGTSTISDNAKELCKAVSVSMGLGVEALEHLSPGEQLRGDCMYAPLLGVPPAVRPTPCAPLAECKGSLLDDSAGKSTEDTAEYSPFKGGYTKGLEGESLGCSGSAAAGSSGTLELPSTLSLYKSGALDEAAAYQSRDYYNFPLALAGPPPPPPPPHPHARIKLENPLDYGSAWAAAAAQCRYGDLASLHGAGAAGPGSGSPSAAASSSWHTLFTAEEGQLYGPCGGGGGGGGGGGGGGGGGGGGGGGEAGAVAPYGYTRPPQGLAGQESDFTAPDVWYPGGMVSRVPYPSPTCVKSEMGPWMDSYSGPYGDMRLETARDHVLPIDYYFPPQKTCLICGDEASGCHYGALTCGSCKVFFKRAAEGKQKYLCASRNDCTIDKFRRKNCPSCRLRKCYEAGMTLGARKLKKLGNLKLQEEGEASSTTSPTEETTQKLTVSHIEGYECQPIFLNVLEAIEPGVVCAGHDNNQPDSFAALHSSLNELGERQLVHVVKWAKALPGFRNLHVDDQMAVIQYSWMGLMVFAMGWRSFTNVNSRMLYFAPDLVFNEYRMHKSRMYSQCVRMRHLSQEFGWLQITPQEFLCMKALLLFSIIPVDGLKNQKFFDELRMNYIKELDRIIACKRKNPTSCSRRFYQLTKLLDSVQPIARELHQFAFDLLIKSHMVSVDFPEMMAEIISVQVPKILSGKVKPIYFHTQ
Description: Degradation of Androgen Receptor dual T878A/L702H mutant protein in human MDA PCa 2b (ATCC, #CRL-2422) cells treated with PROTACs was quantified using the HTRF Human Androgen Receptor Detection Kit (PerkinElmer, #64ANDRPEH) in 384 well assay plate format. 10 mM DMSO(Sigma-Aldrich, #472301) stock solutions of PROTACs were prepared and diluted across an 11 concentration, 3-fold increment range, and 25 nL dispensed into a white opaque bottomed 384 well assay plate (Thermofisher, #164610) using an acoustic ECHO dispenser (Labcyte). Cells were cultured in growth medium (BRFF-HPC-1 (Athena ES, #0403) supplemented with 20% FBS (Gibco, #10099-141), penicillin 50 U/mL and streptomycin 50 ug/mL (Gibco, #15140-122)) in collagen I or poly-D-lysine coated T175 flasks (Corning, #356487 or #356539, respectively). For the assay, cells were harvested from the flask, centrifuged at 200 g for 5 min and then resuspended in the growth medium. 25 μl of cell suspension containing 10,000 cells was dispensed into each well of the assay plate containing the test compounds, which was then incubated for 18 h at 37° C./5% CO2. Control wells were included on each assay plate, with assay medium without cells being the no AR remaining 100% effect control, and cells treated with DMSO vehicle only, without PROTAC, the 0% effect control. After 18 h incubation 8 μl of supplemented lysis buffer from HTRF kit was added to each well and the plate shaken at 500 rpm for 1 h at room temperature. 8 μl of antibody mix in Detection buffer from HTRF kit was added to each well and the plate was incubated for 2 h in dark at room temperature. The fluorescence was measured at both 620 nm and 665 nm using an excitation wavelength of 337 nm with a PHERAstar microplate reader (BMG Labtech) and the % AR protein remaining in each well was calculated by normalising the HTRF ratio (665 nm signal/620 nm signal) value to the control wells mentioned above. Parameters corresponding to the potency and efficacy estimates of the PROTACs were obtained from these normalised values using curve fitting software (IDBS ActivityBase). These included the DC50 and the Dmax estimates. Two versions of the DC50, called relative DC50 and absolute DC50, were typically generated. These are the inflection point of a fitted 4 parameter sigmoidal response curve and the interpolated concentration of PROTAC corresponding to 50% of the protein being degraded, respectively. The Dmax parameter was the maximum experimentally observed degradation and the asymptote max parameter the fitted response curve asymptote maximum.

SMILES	Dmax (Androgen Receptor) [%]	Dmax [1] [%]
CC1(C)[C@H](NC(=O)c2ccc(N3CCC(CN4CCC(n5ncc6c(N7CCC(=O)NC7=O)cccc65)CC4)CC3)nc2)C(C)(C)[C@H]1Oc1ccc(C#N)c(Cl)c1 [AR41, N-((1r,3r)-3-(3-Chloro-4-cyanophenoxy)-2,2,4,4-tetramethylcyclobutyl)-6-(4-((4-(4-(2,4-dioxotetrahydropyrimidin-1(2H)-yl)-1H-indazol-1-yl)piperidin-1-yl)methyl)piperidin-1-yl)nicotinamide hydrochloride]	≥ 50	≥ 55
CC1(C)[C@H](NC(=O)c2ccc(N3CCC(CN4CCC(n5ccc6c(N7CCC(=O)NC7=O)cccc65)CC4)CC3)nc2)C(C)(C)[C@H]1Oc1ccc(C#N)c(Cl)c1 [EAR29, N-((1r,3r)-3-(3-chloro-4-cyanophenoxy)-2,2,4,4-tetramethylcyclobutyl)-6-(4-((4-(4-(2,4-dioxotetrahydropyrimidin-1(2H)-yl)-1H-indol-1-yl)piperidin-1-yl)methyl)piperidin-1-yl)nicotinamide formate]	≥ 50	≥ 55
CC1(C)[C@H](NC(=O)c2ccc(N3CCC(CN4CCC(n5ncc6c(N7CCC(=O)NC7=O)cccc65)CC4)CC3)nn2)C(C)(C)[C@H]1Oc1ccc(C#N)c2ncccc12 [AR246, N-((1r,3r)-3-((8-Cyanoquinolin-5-yl)oxy)-2,2,4,4-tetramethylcyclobutyl)-6-(4-((4-(4-(2,4-dioxotetrahydropyrimidin-1(2H)-yl)-1H-indazol-1-yl)piperidin-1-yl)methyl)piperidin-1-yl)pyridazine-3-carboxamide]	≥ 50	≥ 55
CC1(C)[C@H](NC(=O)c2cnc(N3CCC(CN4CCC(n5ccc6c(N7CCC(=O)NC7=O)cncc65)CC4)CC3)cn2)C(C)(C)[C@H]1Oc1ccc(C#N)c(Cl)c1 [AR14, N-((1r,3r)-3-(3-Chloro-4-cyanophenoxy)-2,2,4,4-tetramethylcyclobutyl)-5-(4-((4-(4-(2,4-dioxotetrahydropyrimidin-1(2H)-yl)-1H-pyrrolo[2,3-c]pyridin-1-yl)piperidin-1-yl)methyl)piperidin-1-yl)pyrazine-2-carboxamide]	≥ 50	≥ 55
CC1(C)[C@H](NC(=O)c2ccc(N3CCC(CN4CCC(n5ccc6c(N7CCC(=O)NC7=O)ncnc65)CC4)CC3)nn2)C(C)(C)[C@H]1Oc1ccc(C#N)c(Cl)c1 [AR247, N-((1r,3r)-3-(3-Chloro-4-cyanophenoxy)-2,2,4,4-tetramethylcyclobutyl)-6-(4-((4-(4-(2,4-dioxotetrahydropyrimidin-1(2H)-yl)-7H-pyrrolo[2,3-d]pyrimidin-7-yl)piperidin-1-yl)methyl)piperidin-1-yl)pyridazine-3-carboxamide]	≥ 50	≥ 55

Results, then the compound that gave them:

Dmax (Androgen Receptor) [%]	Dmax [1] [%]	SMILES
≥ 50	≥ 55	CC1(C)[C@H](NC(=O)c2ccc(N3CCC(CN4CCC(n5ccc6c(N7CCC(=O)NC7=O)nccc65)CC4)CC3)nn2)C(C)(C)[C@H]1Oc1ccc(C#N)c2ncccc12 [EAR251, N-((1r,3r)-3-((8-Cyanoquinolin-5-yl)oxy)-2,2,4,4-tetramethylcyclobutyl)-6-(4-((4-(4-(2,4-dioxotetrahydropyrimidin-1(2H)-yl)-1H-pyrrolo[3,2-c]pyridin-1-yl)piperidin-1-yl)methyl)piperidin-1-yl)pyridazine-3-carboxamide hydrochloride]
≥ 50	≥ 55	CC1(C)[C@H](NC(=O)c2cnc(N3CCC(CN4CCC(n5ncc6c(N7CCC(=O)NC7=O)cccc65)CC4)CC3)cn2)C(C)(C)[C@H]1Oc1ccc(C#N)c(Cl)c1 [EAR37, N-((1r,3r)-3-(3-Chloro-4-cyanophenoxy)-2,2,4,4-tetramethylcyclobutyl)-5-(4-((4-(4-(2,4-dioxotetrahydropyrimidin-1(2H)-yl)-1H-indazol-1-yl)piperidin-1-yl)methyl)piperidin-1-yl)pyrazine-2-carboxamide hydrochloride]
≥ 50	≥ 55	CC1(C)[C@H](NC(=O)c2cnc(N3CCC(CN4CCC(n5ccc6c(N7CCC(=O)NC7=O)cncc65)CC4)CC3)nc2)C(C)(C)[C@H]1Oc1ccc(C#N)c(Cl)c1 [EAR18, N-((1r,3r)-3-(3-Chloro-4-cyanophenoxy)-2,2,4,4-tetramethylcyclobutyl)-2-(4-((4-(4-(2,4-dioxotetrahydropyrimidin-1(2H)-yl)-1H-pyrrolo[2,3-c]pyridin-1-yl)piperidin-1-yl)methyl)piperidin-1-yl)pyrimidine-5-carboxamide]
≥ 50	≥ 55	CC1(C)[C@H](NC(=O)c2ccc(CCCCCCN3CCC(n4ccc5c(N6CCC(=O)NC6=O)cccc54)CC3)cc2)C(C)(C)[C@H]1Oc1ccc(C#N)c(C(F)(F)F)c1 [EAR75, N-((1r,3r)-3-(4-Cyano-3-(trifluoromethyl)phenoxy)-2,2,4,4-tetramethylcyclobutyl)-4-(6-(4-(4-(2,4-dioxotetrahydropyrimidin-1(2H)-yl)-1H-indol-1-yl)piperidin-1-yl)hexyl)benzamide]

Reference: patent US20250205344A1, “2,4-DIOXOTETRAHYDROPYRIMIDINYL DERATIVES AS DEGRONS IN PROTACS” (GLAXOSMITHKLINE INTELLECTUAL PROPERTY DEVELOPMENT LIMITED, priority 2022, published 2025)
